Activity data for 7 compounds are collected here from ChEMBL document CHEMBL1143028, “Preparation of cyclic 2',3'-carbamate derivatives of erythromycin macrolide antibiotics” (Bioorg Med Chem, 2007).

Structures are written as SMILES. Activity calls are given as the source filed them. No cut-off for these calls is given here.

In one assay the test system is Staphylococcus aureus. Put plainly: Antibacterial activity against Staphylococcus aureus ATCC 25923 at […]. The class given is functional, organism-based.
The subject of another assay is Escherichia coli. As to the kind of experiment: Antibacterial activity against Escherichia coli ATCC 25922 at […]. The class given is functional, organism-based.

In the case of `C=CCOC(=O)O[C@H]1[C@H](C)[C@@H](O[C@@H]2O[C@H](C)C[C@H]3[C@H]2OC(=O)N3C)[C@](C)(OC)C[C@@H](C)C(=O)[C@H](C)[C@@H]2OC(=O)O[C@]2(C)[C@@H](CC)OC(=O)[C@@H]1C`, the outcome with Staphylococcus aureus and in the assay with Escherichia coli was inactive.
Regarding `CC[C@H]1OC(=O)[C@H](C)C(=O)[C@H](C)[C@@H](O[C@@H]2O[C@H](C)C[C@H]3[C@H]2OC(=O)N3C)[C@](C)(OC)C[C@@H](C)C(=O)[C@H](C)[C@@H]2N(c3ccc(N4CCOCC4)c(F)c3)C(=O)O[C@@]21C`, the outcome in the assay with Staphylococcus aureus and in the assay with Escherichia coli was inactive.
`CC[C@H]1OC(=O)[C@H](C)[C@@H](O)[C@H](C)[C@@H](O[C@@H]2O[C@H](C)C[C@H]3[C@H]2OC(=O)N3C)[C@](C)(OC)C[C@@H](C)C(=O)[C@H](C)[C@@H]2OC(=O)O[C@]12C`: the result with Staphylococcus aureus and in the assay with Escherichia coli was inactive.
As to `CC[C@H]1OC(=O)[C@H](C)C(=O)[C@H](C)[C@@H](O[C@@H]2O[C@H](C)C[C@H]3[C@H]2OC(=O)N3C)[C@](C)(OC)C[C@@H](C)C(=O)[C@H](C)[C@@H]2OC(=O)O[C@]12C`, the outcome in the assay on Staphylococcus aureus and in the assay on Escherichia coli was inactive.
Take `CC[C@H]1OC(=O)[C@H](C)[C@@H](O[C@H]2C[C@@](C)(OC)[C@@H](O)[C@H](C)O2)[C@H](C)[C@@H](O[C@@H]2O[C@H](C)C[C@H]3[C@H]2OC(=O)N3C)[C@](C)(OC)C[C@@H](C)C(=O)/C(C)=C/[C@]1(C)O`: the result with Staphylococcus aureus and with Escherichia coli was inactive.
For `CC[C@H]1OC(=O)[C@H](C)[C@@H](O[C@H]2C[C@@](C)(OC)[C@@H](O)[C@H](C)O2)[C@H](C)[C@@H](O[C@@H]2O[C@H](C)C[C@H]3[C@H]2OC(=O)N3C)[C@](C)(OC)C[C@@H](C)C(=O)[C@H](C)[C@@H]2OC(=O)O[C@]12C`, the result in the assay with Staphylococcus aureus and with Escherichia coli was inactive.
With `C=CCOC(=O)O[C@H]1[C@H](C)O[C@@H](O[C@H]2[C@H](C)[C@@H](O[C@@H]3O[C@H](C)C[C@H]4[C@H]3OC(=O)N4C)[C@](C)(OC)C[C@@H](C)C(=O)[C@H](C)[C@@H]3OC(=O)O[C@]3(C)[C@@H](CC)OC(=O)[C@@H]2C)C[C@@]1(C)OC`, the result in the assay with Staphylococcus aureus and with Escherichia coli was inactive.
